US10993923B2, “Method for ameliorating fibrosis using 1-[4-chloro-3-(trifluoromethyl)phenyl]-3-[3-(4-cyanophenoxy)phenyl]urea” (priority 2016, dated 2021)

Tests used:
primary mouse HSCs = assay: Cell viability (MTS), primary mouse HSCs; assay type: cell-based; conditions: 24 or 48 hours; FIG. 14A
Protocol: (§1) Rat immortal hepatic stellate cell line HSC-T6 and LX2 human hepatic stellate cell line were provided by Professor Scott Friedman of Mount Sinai Hospital in New York, USA. The primary mouse HSCs were obtained via the way: after intubating the hepatic portal vein of the mouse, the cells were perfused with Leffert's and ethylene glycol bis-aminoethyl ether tetraacetic acid (EGTA) buffer in situ, and then collagenase was injected to digest the liver tissue, and then the primary mouse HSCs were isolated by Histodnz gradient. […]
(§2) HSC-T6 cells, LX2 cells or primary mouse HSCs cells were seeded in 96-well plates (5,000 cells/well) for 24 hours, and the cells were treated with various concentrations of 1-[4-chloro-3-(trifluoromethyl)phenyl]-3-[3-(4-cyanophenoxy)phenyl]urea or Sorafenib for 24 or 48 hours. The effect of each reagent on the cell viability and the cell were evaluated by CellTiter 96 AQueous one solution of 3-(4,5-dimethylthiazol-2-yl)-5-(3-carboxymethoxyphenyl)-2-(4-sulfophenyl)-2H-tetra zolium, an inner, MTS (Promega, USA). […] The proportion of apoptotic cells was mixed the early (Annexin V+/PI−) and the late (Annexin V+/PI+) apoptotic cells measured by BD FACS Verse flow cytometry (BD, USA).

SHP-1 = molecular target: T1, SHP-1 (Rattus norvegicus, UniProt P81718); assay: SHP-1 phosphatase activity, HSC-T6 cells; assay type: cell-based; conditions: sorafenib 5 μM, compound 2.5 or 5 μM, FIG. 16C
T1 construct: endogenous in cells; host or cells: HSC-T6 cells

HSC-T6 cells = assay: Apoptosis (Annexin V / propidium iodide flow cytometry), HSC-T6 cells; assay type: cell-based, rat
Protocol: as §1
as §2, with “(BD, USA). […]” for “(BD, USA).”

[1] = tested on: CCl4-induced hepatic fibrosis in mice; assay: CCl4-induced hepatic fibrosis mice prevention model; assay type: in vivo, male C57BL/6J mice; conditions: concurrently administered with CCl4 for 4 weeks; FIG. 11A-11E
From the text: (§3) In male C57BL/6J mice, liver fibrosis was induced by carbon tetrachloride (CCl4). The mice were given peritoneal injection of carbon tetrachloride for 4 or 8 weeks every two weeks.
(§4) The mice liver samples were stored in 10% formaldehyde, dehydrated with gradient alcohol, embedded in paraffin blocks, sectioned to a thickness of 3 μm, placed on glass slides, and stained with Picrosirius Red Stain kit (ScyTek, USA), following the manufacturer's instructions. The severity of liver fibrosis was graded according to the Ishak fibrosis score. Quantitative collagen-positive area (qCPA) was determined by densitometry via ImageJ software. Hepatic hydroxyproline concentrations were measured by the hydroxyproline assay kit (Biovision, USA), following the manufacturer's instructions Immunohistochemistry was performed by the Leica BOND-MAX automatic chromatograph (Leica Biosystems, Germany), following the manufacturer's instructions.

[2] = tested on: CCl4-induced hepatic fibrosis in mice; assay: CCl4-induced hepatic fibrosis mice treatment model; assay type: in vivo, male C57BL/6J mice
From the text: as §3, §4
Continuous variables are presented as mean (standard error), and categorical data are presented as number (percentage), as appropriate. Differences between subgroups were evaluated using the Student t test. Spearman's correlation was used for the association between SHP-1 and serum alanine aminotransferase (ALT). The mouse survival rate was estimated using the Kaplan-Meier method. The log-rank test was used to determine the statistical differences in survival of the different experimental groups. Statistical analysis was performed using STATA (version 13, Stata Corp, College Station, Tex., USA). All tests were two-sided, and P<0.05 was considered significant.

LX2 cells = assay: Apoptosis (Annexin V / propidium iodide flow cytometry), LX2 cells; assay type: cell-based, human
Protocol: Rat immortal hepatic stellate cell line HSC-T6 and LX2 human hepatic stellate cell line were provided by Professor Scott Friedman of Mount Sinai Hospital in New York, USA. The primary mouse HSCs were obtained via the way: after intubating the hepatic portal vein of the mouse, the cells were perfused with […] and ethylene glycol bis-aminoethyl ether tetraacetic acid (EGTA) buffer in situ, and then collagenase was injected to digest the liver tissue, and then the primary mouse HSCs were isolated by Histodnz gradient. HSC-T6 cells were cultured in Waymouth medium; LX2 cells and primary mouse HSCs were cultured in Dulbecco's Modified Eagle Medium (DMEM) containing 10% fetal bovine serum (FBS), 100 μg/mL penicillin, 100 μg/mL streptomycin, and 2 mM L-glutamine HSC-T6 cells, LX2 cells and primary mouse HSCs were cultured in a humidified incubator containing 5% carbon dioxide at 37° C. After adding the FBS, the resting HSC is started. […] The experiment was carried out following the manufacturer's instructions, and each group was triple repetition. […] The proportion of apoptotic cells was mixed the early (Annexin V+/PI-) and the late (Annexin V+/PI+) apoptotic cells measured by BD FACS Verse flow cytometry (BD, USA). Plasmids encoding the human wild-type SHP-1 and SHP-1 mutant, in which the N-SH2 domain was […] was changed into an […]) were cloned into the pCMV6-entry vector with myc-tag. These mutants were confirmed through DNA sequencing. […] (Chicago, Ill., USA).

T1 sequence (P81718 whole entry): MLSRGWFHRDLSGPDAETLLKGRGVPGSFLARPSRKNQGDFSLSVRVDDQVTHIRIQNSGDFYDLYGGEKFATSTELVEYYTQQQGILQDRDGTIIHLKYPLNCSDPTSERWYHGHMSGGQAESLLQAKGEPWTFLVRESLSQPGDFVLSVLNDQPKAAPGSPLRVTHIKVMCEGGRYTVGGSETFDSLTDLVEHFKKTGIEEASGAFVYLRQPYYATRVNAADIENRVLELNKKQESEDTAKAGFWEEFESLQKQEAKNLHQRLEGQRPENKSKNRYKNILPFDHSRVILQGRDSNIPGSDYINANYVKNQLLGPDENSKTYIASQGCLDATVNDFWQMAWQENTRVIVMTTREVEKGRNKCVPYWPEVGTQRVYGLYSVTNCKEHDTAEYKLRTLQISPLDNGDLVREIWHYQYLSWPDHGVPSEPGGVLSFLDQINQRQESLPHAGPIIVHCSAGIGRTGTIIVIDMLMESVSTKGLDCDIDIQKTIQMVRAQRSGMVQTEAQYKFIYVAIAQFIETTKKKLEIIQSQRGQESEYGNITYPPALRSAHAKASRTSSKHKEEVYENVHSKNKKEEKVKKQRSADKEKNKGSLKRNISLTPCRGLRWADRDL

SMILES: N#Cc1ccc(Oc2cccc(NC(=O)Nc3ccc(Cl)c(C(F)(F)F)c3)c2)cc1 [1-[4-chloro-3-(trifluoromethyl)phenyl]-3-[3-(4-cyanophenoxy)phenyl]urea]
- viability of primary mouse HSCs (primary mouse HSCs): dose- and time-dependent effects to reduce the viability
- SHP-1 activity (SHP-1): significantly increased the SHP-1 activity at a lower concentration
- HSC apoptosis (HSC-T6 cells; HSC-T6, 24 hours, compared with sorafenib, FIG. 14B): significantly increased HSC apoptosis in a dose-dependent manner
- compound-induced apoptosis in STAT3-overexpressing HSCs (HSC-T6 cells; rat STAT3 stable overexpression clone, FIG. 15C): significantly abolished
- hepatic fibrosis (Picrosirius Red staining, qCPA, Ishak fibrosis score, α-SMA expression, hydroxyproline concentration) [1]: significant fibrosis regression
- survival compared with the sorafenib treatment ([2]; 10 mg/kg, log rank P=0.0671, FIG. 12E): tendency to yield higher survival
- survival rate compared with the control group ([2]; 10 mg/kg, log-rank P=0.0291, FIG. 12E): significantly improved the survival rate
- anti-fibrotic activity in qCPA, Ishak fibrosis score and hydroxyproline concentration ([2]; 5, 10, or 20 mg/kg, FIG. 12B-12D): increasing anti-fibrotic activity
- hepatic fibrosis (picrosirius red staining) ([2]; compound 5, 10, or 20 mg/kg or sorafenib 10 mg/kg, with CCl4 for 6 weeks after 2 weeks CCl4 induction, FIG. 12A): significantly improved hepatic fibrosis
- apoptotic LX2 cells, ectopic expression of the vector control and wild-type SHP-1 (LX2 cells; 5 μM, 24 hours, FIG. 17D, 17E): significantly increased the apoptotic LX2 cells
- HSC apoptosis (LX2 cells; LX2, 24 hours, compared with sorafenib, FIG. 14B): significantly increased HSC apoptosis in a dose-dependent manner
- cell apoptosis and p-STAT3 downregulation in dN1 and D61A mutants (LX2 cells; LX2, 5 μM, 24 hours, FIG. 17E): insensitive
- anti-proliferative activity after SHP-1 knockdown by using siRNA (LX2 cells; LX2, FIG. 16F): significantly counteracted
